Like-named read-outs stand apart in the source and are kept apart here.
Experiments:
UBE3/129sv mice = assay: Audiogenic-induced epilepsy test (Test 1) in Angelman syndrome mouse model; format: in vivo; conditions: oral gavage for 7 days, AS mice
Method: Three separate tests were performed to determine effects of two compounds, mibefradil and MK-8998 on behavioral and physiological deficits and epilepsy in a mouse model for Angelman syndrome. The tests included: audiogenic-induced epilepsy test (Test 1, T1), a battery of motor/behavioral tests (Test 2, T2) and long-term potentiation measurements (LTP, Test 3, T3). Completion of each test provided a quantitative result of mibefradil or MK-8998 effect on this test. For all three tests, 2 separate groups of mice were generated: group 1 for test 1 and group 2 for tests 2 and 3, as shown below in see Table 2 and each group consists of 6 subgroups, a-f.
For all behavioral and electrophysiology experiments female Ube3am^−/p^+KO mice (i.e., AS mice) were crossed with wild-type males, to generate heterozygous AS mice and littermate controls in the F1 hybrid 12952-C57BL/6 background. For epilepsy tests, AS mice are crossed with controls in the 12952/SvPasCrl background. In total, 2 groups of mice are required: group 1 for the epilepsy test (Table 2, group 1a-f) and group 2 for the behavioral test battery and electrophysiology (Table 2, group 2a-f). […] The number of mice used per test/subgroup is indicated in Table 2 and ranges from 5-7 mice/subgroup for electrophysiology, 10 mice/subgroup for epilepsy test, and 12 to 15 mice/subgroup for behavioral test battery. […]

CaMKIIα = conditions: striatum, cited from earlier work

## CC(C)c1ccc(CC(=O)N[C@H](C)c2ccc(OCC(F)(F)F)cn2)cc1 [MK-8998]
UBE3/129sv mice; 60 mg/kg, audiogenic-induced seizures
  treated animals with seizures eliminated completely: about 80%
UBE3/129sv mice; 10, 30, 60 mg/kg
  effect on audiogenic-induced seizures (in words): eliminated seizures in a dose-dependent manner

## [Cl][Ni][Cl] [NiCl2]
CaMKIIα; 100 μM
  decrease of threonine autophosphorylation of CaMKIIα: 35%

## COCC(=O)O[C@]1(CCN(C)CCCc2nc3ccccc3[nH]2)CCc2cc(F)ccc2[C@@H]1C(C)C [mibefradil]
CaMKIIα; 5 μM
  decrease of threonine autophosphorylation of CaMKIIα: 37%

From patent US11273218B2, “Methods for treating Angelman syndrome and related disorders” (Cavion, Inc., priority 2015, dated 2022)
